Earlier results as cited in US20220226500A1, “FULLERENIC ELLAGIC LUTEOLIN AND METHODS” (Sinapu LLC, priority 2021, published 2022).

Tests used:
[1] = human body
[2] = in water

O=c1oc2c(O)c(O)cc3c(=O)oc4c(O)c(O)cc1c4c23 [ellagic acid]
time in which more than half of the absorbed blood plasma level is broken down [1]: within one hour
solubility [2]: 0.0097 grams per liter of water
